Source: article PMC6832952, “Synthesis and Evaluation of Pyrimidine Steroids as Antiproliferative Agents” (Molecules, 2019)
Where two headings read alike, the source gives them in different places.

What was measured:
HBL-100 (breast) cells = test: Growth inhibition assay (NCI protocol), HBL-100; format: cell-based, human; conditions: 48 h exposure
From the text: (§1) We studied the antiproliferative activity of α,β-unsaturated ketones (2 and 6) and steroidal pyrimidines (3 and 7) against human cell lines following the guidelines of the National Cancer Institute. For the tests we selected five human solid tumor cell lines from diverse origins and one human fibroblast cell line as a model of non-tumor cells. These cell lines were chosen as representative of drug sensitive (A549, HBL-100, and HeLa) and drug resistant (T-47D and WiDr) monolayer cultures based on previous studies. The steroidal anticancer drugs abiraterone and galeterone were also tested for comparison purposes. […] This is a relevant finding, since our compounds are non-toxic to healthy cells, whilst the steroidal anticancer drugs inhibit the growth of fibroblasts at GI50 values as low as 4.5–5 µM.
(§2) The following densities (cells per well) were used: 2500 (A549, HBL-100, HeLa and SW1573), 5000 (T-47D, WiDr and SW1573/PGP), and 7000 (BJ-hTERT). […] Abiraterone and galeterone were used as reference drugs for antiproliferative tests, verapamil was used as a P-gp transport inhibitor in SW1573/Pgp experiments, and their stock solutions were prepared in DMSO at 40 mM. Paclitaxel and vinblastine were used as positive controls in SW1573/Pgp experiments and were initially dissolved in DMSO at 4 mM. For each test compound, the cells were exposed to serial decimal dilutions in the range of 0.001–100 μM for a period of 48 h. Cell culture medium containing verapamil was prepared by adding the final concentration of verapamil of 10 μM. For each product GI50 values were calculated according to the NCI formulas.

SW1573/PGP cells = test: in vitro
From the text: (§3) Next, we studied if the compounds could be substrates for P-glycoprotein 1 (P-gp). P-gp is an important protein of the cell membrane that pumps xenobiotics out of cells. One of the resistance mechanisms to anticancer drugs involves the overexpression of P-gp by cancer cells, rendering these cancers multidrug resistant. Therefore, it is relevant to know whether compounds are substrates for P-gp or not. As a model to test the effect of P-gp overexpression in our compounds, we used a cell line-based assay. We selected one wild type human lung cancer cell line (SW1573) and its P-gp overexpressing variant (SW1573/PGP). In this test, cells were exposed to the compounds for 48 h in the absence or the presence of 10 µM verapamil, a well-known P-gp inhibitor [20].
(§4) The human solid tumor cell lines A549 (non-small cell lung), HBL-100 (breast), and HeLa (cervix), SW1573 (non-small cell lung), and its P-gp overexpressing variant (SW1573/Pgp), T-47D (breast), and WiDr (colon) were used in this study. These cell lines used in this study were kindly provided by Dr. Godefridus J. Peters (Cancer Center Amsterdam, Vrije Universiteit, Amsterdam, The Netherlands). BJ-hTERT human fibroblast cells were given by Dr. Raimundo Freire (Universidad de La Laguna, Canary Islands). All cells were grown in RPMI 1640 supplemented with 1 mM glutamine, 5% FBS and antibiotics. Cells were grown at 37 °C in a humidified atmosphere of 5% CO2 and maintained at low passage.
(§5) The antiproliferative activity was tested in vitro against human cancer cells using the protocol of the National Cancer Institute (NCI) of the USA16 with minor modifications. The following densities (cells per well) were used: 2500 (A549, HBL-100, HeLa and SW1573), 5000 (T-47D, WiDr and SW1573/PGP), and 7000 (BJ-hTERT). Samples for testing were dissolved initially in DMSO at 40 mM, i.e., 400 times the maximum test concentration. Abiraterone and galeterone were used as reference drugs for antiproliferative tests, verapamil was used as a P-gp transport inhibitor in SW1573/Pgp experiments, and their stock solutions were prepared in DMSO at 40 mM. Paclitaxel and vinblastine were used as positive controls in SW1573/Pgp experiments and were initially dissolved in DMSO at 4 mM. For each test compound, the cells were exposed to serial decimal dilutions in the range of 0.001–100 μM for a period of 48 h. Cell culture medium containing verapamil was prepared by adding the final concentration of verapamil of 10 μM. For each product GI50 values were calculated according to the NCI formulas.

[1] = system: A549 (non-small cell lung) cells; test: Growth inhibition assay (NCI protocol), A549; format: cell-based, human; conditions: 48 h exposure
From the text: as §1, §2

HeLa (cervix) cells = test: Growth inhibition assay (NCI protocol), HeLa; format: cell-based, human; conditions: 48 h exposure
From the text: as §1, §2

T-47D (breast) cells = test: Growth inhibition assay (NCI protocol), T-47D; format: cell-based, human; conditions: 48 h exposure
From the text: as §1, §2

[2] = system: BJ-hTERT human fibroblast cells; test: Growth inhibition assay (NCI protocol), BJ-hTERT fibroblasts; format: cell-based; conditions: 48 h exposure, non-tumor cells
From the text: as §1, §2

WiDr (colon) cells = test: Growth inhibition assay (NCI protocol), WiDr; format: cell-based, human; conditions: 48 h exposure
From the text: as §1, §2

[3] = system: SW1573 (non-small cell lung) cells; test: Growth inhibition assay, SW1573 wild type; format: cell-based, human; conditions: 48 h, without verapamil, read-out: GI50 SW1573 w/o Verapamil
From the text: as §3, §4, §5

P-gp = test: in vitro; conditions: human
From the text: as §3, §4, §5

P-glycoprotein 1 (P-gp) = biological target: T1, P-glycoprotein 1 (P-gp) (Homo sapiens, UniProt P08183); test: P-glycoprotein assay (SW1573/PGP vs SW1573, resistance factor); format: cell-based; conditions: for Rf w Verapamil / Rf w/o Verapamil: ratio between GI50 values in SW1573/PGP and SW1573 cells; for Rf w Verapamil: with 10 µM verapamil; for Rf w/o Verapamil: without verapamil
T1 construct: its P-gp overexpressing variant (SW1573/PGP); endogenous in cells; host or cells: SW1573 and SW1573/PGP (SW1573/Pgp) human non-small cell lung cancer cells, provided by Dr. G. J. Peters (Amsterdam)
T1 sequence (P08183 whole entry): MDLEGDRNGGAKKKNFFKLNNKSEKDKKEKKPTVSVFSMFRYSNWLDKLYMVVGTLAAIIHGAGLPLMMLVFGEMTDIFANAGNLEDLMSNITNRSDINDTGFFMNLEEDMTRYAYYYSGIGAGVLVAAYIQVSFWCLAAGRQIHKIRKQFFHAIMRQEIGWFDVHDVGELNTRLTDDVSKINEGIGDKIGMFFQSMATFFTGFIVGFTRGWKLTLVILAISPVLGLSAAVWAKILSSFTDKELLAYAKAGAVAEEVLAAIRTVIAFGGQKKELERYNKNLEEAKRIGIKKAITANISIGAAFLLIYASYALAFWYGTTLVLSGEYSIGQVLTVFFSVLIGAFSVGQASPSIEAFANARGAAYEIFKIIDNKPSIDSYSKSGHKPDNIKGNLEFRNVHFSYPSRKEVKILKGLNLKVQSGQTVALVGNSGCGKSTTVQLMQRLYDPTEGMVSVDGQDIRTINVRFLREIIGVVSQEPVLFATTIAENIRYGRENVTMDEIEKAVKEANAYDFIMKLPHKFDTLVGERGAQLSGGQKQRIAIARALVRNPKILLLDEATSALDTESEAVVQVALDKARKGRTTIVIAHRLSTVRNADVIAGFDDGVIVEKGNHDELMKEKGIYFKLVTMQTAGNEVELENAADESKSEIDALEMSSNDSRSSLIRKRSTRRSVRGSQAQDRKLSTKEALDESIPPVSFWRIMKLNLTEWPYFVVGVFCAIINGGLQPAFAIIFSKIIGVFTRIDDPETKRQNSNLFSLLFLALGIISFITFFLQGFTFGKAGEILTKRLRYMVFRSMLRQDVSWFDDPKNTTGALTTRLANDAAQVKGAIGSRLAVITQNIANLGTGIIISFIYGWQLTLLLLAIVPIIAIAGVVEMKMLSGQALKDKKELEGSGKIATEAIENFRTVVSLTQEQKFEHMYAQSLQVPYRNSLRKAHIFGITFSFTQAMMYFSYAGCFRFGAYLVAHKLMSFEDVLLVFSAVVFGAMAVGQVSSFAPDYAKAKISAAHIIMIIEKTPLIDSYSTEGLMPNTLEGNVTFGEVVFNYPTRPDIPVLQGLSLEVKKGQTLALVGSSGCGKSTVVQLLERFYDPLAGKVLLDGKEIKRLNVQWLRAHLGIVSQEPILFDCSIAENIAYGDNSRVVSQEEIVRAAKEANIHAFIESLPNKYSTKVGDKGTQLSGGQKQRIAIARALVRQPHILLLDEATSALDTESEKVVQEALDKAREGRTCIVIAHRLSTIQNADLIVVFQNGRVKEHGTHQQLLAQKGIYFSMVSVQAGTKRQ
From the text: as §3, §5

[4] = Solubility under protocol conditions; format: physicochemical; conditions: growth inhibition protocol conditions
From the text: as §1
as §2, with “For each test compound, the cells were exposed to serial decimal dilutions in the range of 0.001–100 μM for a period of 48 h. Cell culture medium containing verapamil was prepared by adding the final concentration of verapamil of 10 μM.” left out

[5] = system: human solid tumor cell lines; test: Antiproliferative activity against the panel of human solid tumor cell lines; format: cell-based; conditions: A549, HBL-100, HeLa, T-47D, WiDr, read-out: GI50 range against all tumor cells
From the text: as §4
The antiproliferative activity was tested in vitro against human cancer cells using the protocol of the National Cancer Institute (NCI) of the USA16 with minor modifications. The following densities (cells per well) were used: 2500 (A549, HBL-100, HeLa and SW1573), 5000 (T-47D, WiDr and SW1573/PGP), and 7000 (BJ-hTERT). Samples for testing were dissolved initially in DMSO at 40 mM, i.e., 400 times the maximum test concentration. […] For each product GI50 values were calculated according to the NCI formulas.

[6] = Homo sapiens, SW1573, reference drugs PTX and VB

Compound	GI50 (HBL-100 (breast) cells; Homo sapiens, HBL-100)	GI50 ([1]; Homo sapiens, A549)	GI50 (HeLa (cervix) cells; Homo sapiens, HeLa)	GI50 (T-47D (breast) cells; Homo sapiens, T47D)	GI50 ([2]; Homo sapiens, Fibroblast)	GI50 (WiDr (colon) cells; Homo sapiens, WiDr)	GI50 at 48 h (P-gp)	Rf w Verapamil (P-glycoprotein 1 (P-gp))	Rf w/o Verapamil (P-glycoprotein 1 (P-gp))	GI50 ([3]; Homo sapiens, SW1573)	melting point	other results
20-Oxopregna-5,16-dien-3β-yl Acetate [Compound 6]	–	–	–	–	–	–	–	–	–	–	–	GI50 (HBL-100 (breast) cells): 64 ± 1.6 µM; GI50 (SW1573/PGP cells): > 100 µM; GI50 [1]: 26 ± 5.2 µM; GI50 (HeLa (cervix) cells): 3.6 ± 0.4 µM; GI50 (T-47D (breast) cells): 29 ± 4.5 µM; GI50 [2]: > 100 µM; GI50 (WiDr (colon) cells): 37 ± 2.1 µM; GI50 [3]: 72 ± 10 µM
C[C@]12CC[C@H](O)CC1=CC[C@@H]1[C@@H]2CC[C@]2(C)C(c3cccnc3)=CC[C@@H]12 [Abiraterone, abiraterone, reference compound]	> 100 µM	95 ± 0.8 µM	7.9 ± 0.5 µM	24 ± 4.5 µM	4.5 ± 1 µM	42 ± 7.7 µM	–	–	–	–	–	–
C[C@]12CC[C@H]3[C@@H](CC=C4C[C@@H](O)CC[C@@]43C)[C@@H]1CC[C@@H]2C(=O)/C=C/c1ccccc1 [Compound 2, (E)-21-benzyliden-3β-hydroxypregn-5-en-20-one]	19 ± 3.7 µM	23 ± 1.6 µM	3.3 ± 0.3 µM	9.9 ± 3.5 µM	> 100 µM	6.3 ± 0.5 µM	29 ± 5.5 µM	1.5	1.2	23 ± 0.2 µM	–	substrate for P-gp (P-glycoprotein 1 (P-gp); SW1573 vs SW1573/PGP, with or without 10 µM verapamil): not substrates for P-gp
C[C@]12CCC3C(CC=C4C[C@@H](O)CC[C@@]43C)C1CCC2C1=CC(c2ccccc2)NC(=N)N1 (stereo partly drawn) [Compound 3a, 17β-(2′-imino-1′,3′,6′-trihydro-6′-phenylpyrimidin-4′-yl)-androst-5-en-3β-ol]	23 ± 2.8 µM	4.4 ± 1 µM	6.1 ± 1.2 µM	8.8 ± 2.2 µM	> 100 µM	8.3 ± 1.1 µM	10 ± 4.2 µM	0.7	1.5	6.9 ± 0.5 µM	128 °C	–
C[C@]12CCC3C(CC=C4C[C@@H](O)CC[C@@]43C)C1CCC2C1=CC(c2ccccc2)NC(=O)N1 (stereo partly drawn) [Compound 3b, 17β-(1′,3′,6′-trihydro-2′-oxo-6′-phenylpyrimidin-4′-yl)-androst-5-en-3β-ol]	16 ± 1.3 µM	11 ± 2.9 µM	14 ± 3.6 µM	15 ± 1.3 µM	97 ± 5.9 µM	15 ± 3.5 µM	34 ± 13 µM	1.6	1.9	–	108 to 110 °C	–
C[C@]12CCC3C(CC=C4C[C@@H](O)CC[C@@]43C)C1CCC2C1=CC(c2ccccc2)NC(=S)N1 (stereo partly drawn) [Compound 3c, 17β-(1′,3′,6′-trihydro-6′-phenyl-2′-thioxopyrimidin-4′-yl)-androst-5-en-3β-ol]	45 ± 7.9 µM	7.7 ± 1 µM	11 ± 1.5 µM	13 ± 2.3 µM	> 100 µM	9.2 ± 1.6 µM	38 ± 6.1 µM	1.8	3.2	12 ± 2.7 µM	208 to 210 °C	–
CC1=C2C(CC3C4CC=C5C[C@@H](O)CC[C@]5(C)C4CC[C@]23C)NC(=N)N1 (stereo partly drawn) [Compound 7a, 1′,3′-dihydro-2′-imino-4′-methylpyrimidin-(6′,5′:16,17)-androst-5-en-3β-ol]	–	–	–	–	–	–	–	–	–	–	108 to 110 °C	solubility under protocol conditions [4]: poor solubility
CC1=C2C(CC3C4CC=C5C[C@@H](O)CC[C@]5(C)C4CC[C@]23C)NC(=O)N1 (stereo partly drawn) [Compound 7b, 1′,3′-dihydro-4′-methyl-2′-oxopyrimidin-(6′,5′:16,17)-androst-5-en-3β-ol]	15 ± 3.2 µM	13 ± 3.7 µM	3.4 ± 0.2 µM	15 ± 1.9 µM	> 100 µM	18 ± 1.8 µM	49 ± 4.4 µM	1.4	1.5	34 ± 4.7 µM	163 to 164 °C	–
CC1=C2C(CC3C4CC=C5C[C@@H](O)CC[C@]5(C)C4CC[C@]23C)NC(=S)N1 (stereo partly drawn) [Compound 7c, 1′,3′-dihydro-4′-methyl-2′-thionepyrimidin-(6′,5′:16, 17)-androst-5-en-3β-ol]	3.7 ± 1 µM	3.4 ± 0.5 µM	2.6 ± 0.7 µM	3 ± 0.5 µM	> 100 µM	3.1 ± 0.4 µM	16 ± 1.3 µM	1.1	1.7	9.4 ± 1 µM	208 to 210 °C	GI50 [5]: 2.6 to 3.7 µM
C[C@]12CC[C@H](O)CC1=CC[C@@H]1[C@@H]2CC[C@]2(C)C(n3cnc4ccccc43)=CC[C@@H]12 [Galeterone, galeterone, reference compound]	10 ± 0.9 µM	3.9 ± 1.3 µM	5.3 ± 0.4 µM	2.1 ± 0.1 µM	5 ± 1.3 µM	2.7 ± 0.2 µM	–	–	–	–	–	–
CC(=O)O[C@H]1C(=O)[C@@]2(C)[C@H]([C@H](OC(=O)c3ccccc3)[C@]3(O)C[C@H](OC(=O)[C@H](O)[C@@H](NC(=O)c4ccccc4)c4ccccc4)C(C)=C1C3(C)C)[C@]1(OC(C)=O)CO[C@@H]1C[C@@H]2O [PTX, Paclitaxel, reference compound]	–	–	–	–	–	–	0.196 ± 0.053 µM	2.6	128	–	–	GI50 [3, 6]: 0.0015 ± 0.0005 µM
CC[C@]1(O)C[C@@H]2CN(CCc3c([nH]c4ccccc34)[C@@](C(=O)OC)(c3cc4c(cc3OC)N(C)[C@H]3[C@@](O)(C(=O)OC)[C@H](OC(C)=O)[C@]5(CC)C=CCN6CC[C@]43[C@@H]65)C2)C1 [VB, vinblastine, reference compound]	–	–	–	–	–	–	2.05 ± 0.682 µM	1.3	2388	–	–	GI50 [3, 6]: 0.0009 ± 0.0003 µM
